Among the data in patent US7199120B2, “Pyrazolo-pyridine derivatives as antiherpes agents” (SmithKline Beecham Corporation, priority 2001, dated 2007) are IC50 values, retold here.

The test system of the assay is HSV-1. Briefly: HSV-1 replication in infected Vero 76 cells, viral DNA hybridization capture assay. It is filed as cell-based, herpes simplex virus 1. As to conditions: Human alphaherpesvirus 1; HSV-1 (MOI=0.001) in Vero 76 cells, 40–48 hours incubation, chemiluminescent detection of HSV DNA. As to the method:
Vero 76 cells were maintained in MEM with Earle's salts, L-glutamine, 8% FBS (Hyclone, A-1111-L) and 100 units/mL Penicillin-100 μg/mL Streptomycin. For assay conditions, FBS was reduced to 2%. Cells are seeded into 96-well tissue culture plates at a density of 5×10^4 cells/well after being incubated for 45 min at 37° C. in the presence of HSV-1 or HSV-2 (MOI=0.001). Test compounds are added to the wells and the plates are incubated at 37° C. for 40–48 hours. Cell lysates are prepared as follows: media was removed and replaced with 150 μL/well 0.2 N NaOH with 1% Igepal CA 630 or NP-40. Plates were incubated up to 14 days at room temperature in a humidified chamber to prevent evaporation.
For the detection probe, a gel-purified, digoxigenin-labeled, 710-bp PCR fragment of the HSV UL-15 sequence was utilized. PCR conditions included 0.5 μM primers, 180 μM dTTP, 20 μM dUTP-digoxigenin (Boehringer Mannheim 1558706), 200 μM each of dATP, dCTP, and dGTP, 1×PCR Buffer II (Perkin Elmer), 2.5 mM MgCl2, 0.025 units/μL of AmpliTaq Gold polymerase (Perkin Elmer), and 5 ng of gel-purified HSV DNA per 100 μL Extension conditions were 10 min at 95° C., followed by 30 cycles of 95° C. for 1 min, 55° C. for 30 sec, and 72° C. for 2 min. The amplification was completed with a 10-min incubation at 72° C. Primers were selected to amplify a 728 bp probe spanning a section of the HSV1 UL15 open reading frame (nucleotides 249–977). Single-stranded transcripts were purified with Promega M13 Wizard kits. The final product was mixed 1:1 with a mixture of 6 M GuSCN, 100 mM EDTA and 200 μg/mL herring sperm DNA and stored at 4° C.
The capture DNA plasmid (HSV UL13 region in pUC) was linearized by cutting with Xba I, denatured for 15 min at 95° C. and diluted immediately into Reacti-Bind DNA Coating Solution (Pierce, 17250, diluted 1:1 with TE buffer, pH 8) at 1 ng/μL 75 μL/well were added to Corning (#3922 or 9690) white 96-well plates and incubated at room temperature for at least 4 hrs before washing twice with 300 μL/well 0.2×SSC/0.05% Tween-20 (SSC/T buffer). The plates were then incubated overnight at room temperature with 150 μL/well 0.2 N NaOH, 1% IGEPAL and 10 μg/mL herring sperm DNA.
Twenty-seven (27) μL of cell lysate was combined with 45 μL of hybridization solution (final concentration: 3M GuSCN, 50 mM EDTA, 100 μg/ml salmon sperm DNA, 5× Denhardt's solution, 0.25×APE, and 5 ng of the digoxigenin-labeled detection probe). APE is 1.5 M NH4-acetate, 0.15 M ammonium phosphate monobasic, and 5 mM EDTA adjusted to pH 6.0. Mineral oil (50 μL) was added to prevent evaporation. The hybridization plates were incubated at 95° C. for 10 minutes to denature the DNA, then incubated at 42° C. overnight. The wells were washed 6× with 300 μl/well SSC/T buffer then incubated with 75 μL/well anti-digoxigenin-HRP-conjugated antibody (Boehringer Mannheim 1207733, 1:5000 in TE) for 30 min at room temperature. The wells were washed 6× with […] with PBS/0.05% Tween-20 before 75 μL/well SuperSignal LBA substrate (Pierce) was added. The plates were incubated at room temperature for 30 minutes and chemiluminescence was measured in a Wallac Victor reader.
Usually IC50 stands for the concentration that inhibits the measured activity by half. The low end stands for greater potency in that assay, the high end for weaker potency in that assay. As for `Cc1ccoc1-c1nn2c(NC3CC3)cccc2c1-c1ccnc(NC2CC2)n1` [Example 24, N-Cyclopropyl-3-[2-(cyclopropylamino)-4-pyrimidinyl]-2-(3-methyl-2-furyl)pyrazolo[1,5-a]pyridin-7-amine], the IC50 was 5000 nM.

The molecule `CC(C)Nc1cc(-c2nn3c(NC(C)C)cccc3c2-c2ccnc(NC3CCCC3)n2)ccn1` [Example 19, 3-[2-(Cyclopentylamino)-4-pyrimidinyl]-N-isopropyl-2-[2-(isopropylamino)-4-pyridinyl]pyrazolo[1,5-a]pyridin-7-amine] gave an IC50 of 700 nM.

For the molecule `c1coc(-c2nn3c(NC4CCCC4)cccc3c2-c2ccnc(NC3CCCC3)n2)c1` [Example 25, N-Cyclopentyl-3-[2-(cyclopentylamino)-4-pyrimidinyl]-2-(2-furyl)pyrazolo[1,5-a]pyridin-7-amine], it took 500 nM to reach half-maximal inhibition (IC50).

With `Cc1ccoc1-c1nn2c(NC3CCCC3)cccc2c1-c1ccnc(NC2CCCC2)n1` [Example 22, N-Cyclopentyl-3-[2-(cyclopentylamino)-4-pyrimidinyl]-2-(3-methyl-2-furyl)pyrazolo[1,5-a]pyridin-7-amine], 200 nM corresponded to half-maximal inhibition (IC50).

`c1ccc(CNc2nccc(-c3nn4c(NCc5ccccc5)cccc4c3-c3ccnc(NCc4ccccc4)n3)n2)cc1` [Example 12, N-Benzyl-2,3-bis[2-(benzylamino)pyrimidin-4-yl]pyrazolo[1,5-a]pyridin-7-amine]: the IC50 worked out at 36000 nM.

On to `CC(C)Nc1cc(-c2nn3c(NC(C)C)cccc3c2-c2ccnc(NC3CC3)n2)ccn1` [Example 17, 3-[2-(Cyclopropylamino)-4-pyrimidinyl]-N-isopropyl-2-[2-(isopropylamino)-4-pyridinyl]pyrazolo[1,5-a]pyridin-7-amine], for which half-maximal inhibition (IC50) required 2900 nM.

With `c1coc(-c2nn3c(NC4CC4)cccc3c2-c2ccnc(NC3CCCC3)n2)c1` [Example 26, 3-[2-(Cyclopentylamino)-4-pyrimidinyl]-N-cyclopropyl-2-(2-furyl)pyrazolo[1,5-a]pyridin-7-amine], the IC50 stood at 1400 nM.

`CC(C)Nc1nccc(-c2nn3c(NC(C)C)cccc3c2-c2ccnc(NC(C)C)n2)n1` [Example 13, N-Isopropyl-2,3-bis[2-(isopropylamino)pyrimidin-4-yl]pyrazolo[1,5-a]pyridin-7-amine] returned an IC50 of 3300 nM.

In the case of `c1coc(-c2nn3c(NC4CCCC4)cccc3c2-c2ccnc(NC3CCCC3)c2)c1` [Example 21, N-Cyclopentyl-3-[2-(cyclopentylamino)-4-pyridinyl]-2-(2-furyl)pyrazolo[1,5-a]pyridin-7-amine], 500 nM corresponded to half-maximal inhibition (IC50).

`CCCCNc1nccc(-c2nn3c(NCCCC)cccc3c2-c2ccnc(NCCCC)n2)n1` [Example 8, N-Butyl-2,3-bis[2-(butylamino)pyrimidin-4-yl]pyrazolo[1,5-a]pyridin-7-amine] yielded an IC50 of 800 nM.

Regarding `Brc1ccc(-c2nn3c(NC4CCCC4)cccc3c2-c2ccnc(NC3CCCC3)n2)o1` [Example 27, 2-(5-Bromo-2-furyl)-N-cyclopentyl-3-[2-(cyclopentylamino)-4-pyrimidinyl]pyrazolo[1,5-a]pyridin-7-amine], the IC50 was found to be 500 nM.

As for `c1cncc(-c2nn3c(NC4CCCC4)cccc3c2-c2ccnc(NC3CCCC3)n2)c1` [Example 3, N-cyclopentyl-3-[2-(cyclopentylamino)-4-pyrimidinyl]-2-(3-pyridinyl)pyrazolo[1,5-a]pyridin-7-amine], it took 600 nM to reach half-maximal inhibition (IC50).

The molecule `Cc1ccoc1-c1nn2c(NC3CCCC3)cccc2c1-c1ccnc(NC2CC2)n1` [Example 23, N-Cyclopentyl-3-[2-(cyclopropylamino)-4-pyrimidinyl]-2-(3-methyl-2-furyl)pyrazolo[1,5-a]pyridin-7-amine] registered an IC50 of 800 nM.

Regarding `CC(C)Nc1nccc(-c2c(-c3ccnc(NC4CCCC4)c3)nn3c(NC4CCCC4)cccc23)n1` [Example 18, N-Cyclopentyl-2-[2-(cyclopentylamino)-4-pyridinyl]-3-[2-(isopropylamino)-4-pyrimidinyl]pyrazolo[1,5-a]pyridin-7-amine], inhibition was half-maximal at 1000 nM (IC50).

On to `c1ccn2nc(-c3ccnc(NC4CCCC4)n3)c(-c3ccnc(NC4CCCC4)n3)c2c1` [Example 4, N-Cyclopentyl-N-(4-{2-[2-(cyclopentylamino)-4-pyrimidinyl]pyrazolo[1,5-a]pyridin-3-yl]-2-pyrimidinyl)amine], for which the IC50 was found to be 3100 nM.

In the case of `c1cc(NC2CCCC2)n2nc(-c3ccnc(NC4CCCC4)n3)c(-c3ccnc(NC4CCCC4)n3)c2c1` [Example 6, N-Cyclopentyl-2,3-bis[2-(cyclopentylamino)-4-pyrimidinyl]pyrazolo[1,5-a]pyridin-7-amine], the IC50 turned out to be 400 nM.

As to `Cc1nc(-c2nn3c(NC4CCCC4)cccc3c2-c2ccnc(NC3CCCC3)c2)cs1` [Example 28, N-Cyclopentyl-3-[2-(cyclopentylamino)-4-pyridinyl]-2-(2-methyl-1,3-thiazol-4-yl)pyrazolo[1,5-a]pyridin-7-amine], the midpoint of inhibition, the IC50, lay at 1700 nM.

On to `c1cc(N2CCOCC2)n2nc(-c3ccnc(N4CCOCC4)n3)c(-c3ccnc(N4CCOCC4)n3)c2c1` [Example 10], for which the midpoint of inhibition, the IC50, lay at 33000 nM.

With `CC(C)Nc1cc(-c2nn3c(NC4CCCC4)cccc3c2-c2ccnc(NC3CCCC3)n2)ccn1` [Example 20, N-Cyclopentyl-3-[2-(cyclopentylamino)-4-pyrimidinyl]-2-[2-(isopropylamino)-4-pyridinyl]pyrazolo[1,5-a]pyridin-7-amine], the IC50 is 500 nM.

`c1cc(NC2CC2)n2nc(-c3ccnc(NC4CC4)n3)c(-c3ccnc(NC4CC4)n3)c2c1` [Example 9, N-Cyclopropyl-2,3-bis[2-(cyclopropylamino)pyrimidin-4-yl]pyrazolo[1,5-a]pyridin-7-amine] came in with an IC50 of 23000 nM.

As to `CC(C)CNc1nccc(-c2nn3c(NCC(C)C)cccc3c2-c2ccnc(NCC(C)C)n2)n1` [Example 11, N-Isobutyl-2,3-bis[2-(isobutylamino)pyrimidin-4-yl]pyrazolo[1,5-a]pyridin-7-amine], the IC50 came to 1600 nM.

On to `c1cc(NC2CCCC2)n2nc(-c3ccncc3)c(-c3ccnc(NC4CCCC4)n3)c2c1` [Example 1, N-Cyclopentyl-3-[2-(cyclopentylamino)-4-pyrimidinyl]-2-(4-pyridinyl)pyrazolo[1,5-a]pyridin-7-amine], for which the IC50 was 1500 nM.
